Four molecules from patent publication US9068958B1, “Use of surface free energy for differential evaluation of crystal, crystal evaluated on basis of surface free energy as index, and pharmaceutical composition prepared by containing the crystal” (POLA PHARMA INC., priority 2012, dated 2015) can be followed below.

A short description of data set [1]: Storage testing under severely stressed condition of crystals suspended in water, isomer formation by HPLC. The data set is classed as physicochemical. The conditions noted are these: light 6000 1×, 80° C., 6 hours, ratio to charging amount of luliconazole. Here is the method: The storage testing under severely stressed condition was performed for Crystals 1 to 4. That is, each of the samples was suspended in water (infiltration condition or humidified condition), which was exposed to light at 6000 1× at 80° C. for 6 hours, followed by being collected by filtration and dried. After that, the ratio of the Z isomer of luliconazole with respect to the charging amount of luliconazole was measured and calculated. The measurement was performed by means of HPLC. The HPLC condition was as follows.
Column: CHIRALCEL OD-RH 4.6×150 mm, column temperature: 35° C., mobile phase: mixture solution of methanol/1.8% aqueous solution of potassium hexafluorophosphate (83:17, v/v), flow rate: 0.56 mL/min., detection: 295 nm.
As for the SE isomer, the storage testing under severely stressed testing was performed for the crystal in the same manner as the Z isomer. As a result, any difference was not observed in relation to the amount of formation depending on the difference in the crystal. That is, the tendency of the SE isomer was not observed for the crystal itself.

Data set [2] can be described thus: Surface free energy of crystal by liquid penetration rate measurement (contact angle, Owens-Wendt-Rabel-Kaelble method). The data set is classed as physicochemical. The conditions noted are these: crystal powder; for γS^d, dispersion component of surface free energy / γS^p, polar component of surface free energy: solvents n-hexane, tetrachloromethane, benzene, 1-nitropropane, water; for γS, surface free energy: sum of dispersion and polar component. As for the experimental part:
The measurement of the surface free energy of the crystal may be performed in accordance with an ordinary method. For example, the contact angle with respect to the crystal is measured by means of the liquid penetration (permeation) rate measurement (machine type of apparatus: Processor Tensiometer K12, manufacturer: KRUSS GmbH) by using several solvents for which the surface free energy, the dispersion component of the surface free energy, and the polar component of the surface free energy are already known, and thus it is possible to perform the calculation therefrom by applying the model of Owens, Wendt, Rabel, and Kaelble. Preferred solvents for measurement in this method can be appropriately exemplified, for example, by n-hexane, […], benzene, nitrobenzene, 1-nitropropane, and water. As for the method as described above, it is possible to make reference, for example, to a method described in Japanese Patent Application Laid-open No. 2010-183064.
In relation to the surface free energy, the contact angle θ is calculated in accordance with the Washburn's equation from the penetration (permeation) rate of liquid into powder obtained by the liquid penetration (permeation) rate measurement (machine type of apparatus: Processor Tensiometer K12, manufacturer: KRUSS GmbH). The penetration (permeation) rate of the liquid in the chamber into the powder is measured by using a chamber tube shown in FIG. 4. […] Washburn's equation is represented by the following equation 1.
If this equation is converted into the weight of the solvent permeated into the powder per unit time, the following equation 2 is presented.
The contact angle θ is determined by measuring the penetration (permeation) rate by using a solvent for which the surface tension (γL), the density (ρ), and the viscosity (η) of the liquid are known. The polar component and the dispersion component of the surface free energy are calculated in accordance with the Owens-Wendt-Rabel-Kaelble method by using θ thus determined. That is, assuming that the surface free energy is composed of the non-polar dispersion component γ^d and the polar component γ^p, the following equations are presented. γS=γS^d+γS^p γL=γLd+γLp γSL=γS+γL−2√{square root over (yS^d·γL^d)}−2√{square root over (γS^p·γL^p)} Equation 3
If Young's equation, which holds among the surface tension of the liquid, the surface tension of the solid, and the solid-liquid interfacial tension, is substituted with the above, the following equation is obtained.
The contact angle θ is determined, and plotted by using several types of solvents having known γL, γL^d, γL^p, and thus it is possible to determine γS^p from the slope and γs^d from the intercept. n-Hexane, tetrachloromethane, benzene, 1-nitropropane, and water were used as the known solvents.
By utilizing the above, the surface free energy, the dispersion component of the surface free energy, the polar component of the surface free energy, and the ratio (%) of the polar component with respect to the surface free energy were calculated for samples (specimens) manufactured by the following methods.

Consider `N#C/C(=C1/SC[C@@H](c2ccc(Cl)cc2Cl)S1)n1ccnc1` [Crystal 1, Luliconazole], for which, in data set [1] (listed as 1), the “Amount of formation of Z isomer (%) under condition of suspension in water and exposure to light” value (“Amount of formation of Z isomer (%)” for short) came out at 0.11%. For the same molecule, in data set [2] (listed as 1), the “γS^p/γS, ratio of polar component of surface free energy” value (“γS^p/γS, ratio … of surface free energy” below) was determined as 44%; the “γS^d, dispersion component of surface free energy” value was 16.1 mJ/m^2; the “γS^p, polar component of surface free energy” value stood at 12.7 mJ/m^2; the “γS, surface free energy” value was determined as 28.8 mJ/m^2.

Consider `N#C/C(=C1/SC[C@@H](c2ccc(Cl)cc2Cl)S1)n1ccnc1` [Crystal 2, Luliconazole], for which, in data set [1] (listed as 2), the “Amount of formation of Z isomer (%)” value is recorded as 0.08%. Besides, in data set [2] (listed as 2), the “γS^p/γS, ratio … of surface free energy” value was determined as 29%; the “γS^d, dispersion component of surface free energy” value is given as 19.5 mJ/m^2; the “γS^p, polar component of surface free energy” value turned out to be 7.9 mJ/m^2; the “γS, surface free energy” value is listed as 27.4 mJ/m^2.

Take `N#C/C(=C1/SC[C@@H](c2ccc(Cl)cc2Cl)S1)n1ccnc1` [Crystal 3, Luliconazole]: the “Amount of formation of Z isomer (%)” value in data set [1] (listed as 3) is reported as 0.07%. Further, in data set [2] (listed as 3), the “γS^p/γS, ratio … of surface free energy” value is 31%; the “γS^d, dispersion component of surface free energy” value is listed as 18.4 mJ/m^2; the “γS^p, polar component of surface free energy” value was determined as 8.2 mJ/m^2; the “γS, surface free energy” value is listed as 26.6 mJ/m^2.

For `N#C/C(=C1/SC[C@@H](c2ccc(Cl)cc2Cl)S1)n1ccnc1` [Crystal 4, Luliconazole], the “Amount of formation of Z isomer (%)” value in data set [1] (listed as 4) is 0.07%. Besides, in data set [2] (listed as 4), the “γS^p/γS, ratio … of surface free energy” value turned out to be 20%; the “γS^d, dispersion component of surface free energy” value was 20.3 mJ/m^2; the “γS^p, polar component of surface free energy” value worked out at 5.2 mJ/m^2; the “γS, surface free energy” value is 25.5 mJ/m^2.
